In US20240246932A1 (Merck Sharp & Dohme LLC, priority 2021, published 2024):

Target: human NaV 1.8 channels stably expressed in HEK 293 cells (Homo sapiens (Human), UniProt Q9Y5Y9)
Assay: Nav1.8 Qube automated patch-clamp assay
Format: cell-based
Conditions: human NaV1.8 in HEK 293 cells, whole-cell voltage clamp, room temperature; read-out: IC50 values (nM) for Examples in the Nav1.8 Qube Assay
Procedure: Compounds were tested on human NaV 1.8 and NaV1.5 channels stably expressed in human embryo kidney (HEK) 293 cells. Sodium current measurements on Qube® were conducted as follows: automated 384-well patch-clamp assays on the Qube® platform (Sophion Biosciences) were used to measure the inhibition of sodium flow through human NaV1.8 and NaV1.5 channels. Whole-cell voltage-clamp recordings were performed in QChips® (Sophion Biosciences) at room temperature. NaV1.8 current measurements on Qube® were obtained as follows: NaV1.8 currents were elicited with a 10 second 1 Hertz (Hz) pulse train from a holding potential of −90 millivolts (mV), delivered to the cells once per minute in the control condition (DMSO only) and after compound addition. The 1 hertz pulse train stimulation consisted of ten test pulses to 10 millivolt (mV) for 20 milliseconds (ms), each of which was followed by a 980 millisecond repolarization to −67 millivolts. At the end of the 10 second pulse train stimulation, a 5 second hyperpolarization step to −100 millivolt (mV) was used to recover NaV1.8 from fast inactivation. The peak currents elicited by the 1st and 10th test pulses were used to determine IC50 values for resting inhibition and inactivated state inhibition. NaV1.5 current measurements on Qube® were obtained as follows: NaV1.5 currents were elicited with a 20 second 3 Hertz pulse train in the control condition (DMSO only) and after compound addition. The pulse train consisted of sixty 20 millisecond test pulses to 0 millivolt from a holding potential of −80 millivolt (mV). The average peak currents elicited by the last 3 test pulses were used to determine IC50 values for NaV1.5 inhibition.
The following buffers were used for the Qube® recordings: External buffer for NaV1.8 Qube® recording: 150 NaCl, 2 CaCl2, 5 KCl, 1 MgCl2, 10 HEPES, 12 Dextrose; External buffer for Qube® NaV1.5 recording: 120 N-Methyl-D-Glucamine, 40 NaCl, 1 KCl, 2.7 CaCl2), 5 HEPES, 0.5 MgCl2; and Internal buffer for Qube® recording: 120 CsF, 30 CsCl, 10 EGTA, 5 HEPES, 5 NaF, 2 MgCl2.
For all Qube® experiments offline analysis was used to determine percent inhibition as a function of drug concentration. IC50 values were determined by fitting to the Hill equation.

human NaV 1.8 channels stably expressed in HEK 293 cells, sequence (Q9Y5Y9 whole entry): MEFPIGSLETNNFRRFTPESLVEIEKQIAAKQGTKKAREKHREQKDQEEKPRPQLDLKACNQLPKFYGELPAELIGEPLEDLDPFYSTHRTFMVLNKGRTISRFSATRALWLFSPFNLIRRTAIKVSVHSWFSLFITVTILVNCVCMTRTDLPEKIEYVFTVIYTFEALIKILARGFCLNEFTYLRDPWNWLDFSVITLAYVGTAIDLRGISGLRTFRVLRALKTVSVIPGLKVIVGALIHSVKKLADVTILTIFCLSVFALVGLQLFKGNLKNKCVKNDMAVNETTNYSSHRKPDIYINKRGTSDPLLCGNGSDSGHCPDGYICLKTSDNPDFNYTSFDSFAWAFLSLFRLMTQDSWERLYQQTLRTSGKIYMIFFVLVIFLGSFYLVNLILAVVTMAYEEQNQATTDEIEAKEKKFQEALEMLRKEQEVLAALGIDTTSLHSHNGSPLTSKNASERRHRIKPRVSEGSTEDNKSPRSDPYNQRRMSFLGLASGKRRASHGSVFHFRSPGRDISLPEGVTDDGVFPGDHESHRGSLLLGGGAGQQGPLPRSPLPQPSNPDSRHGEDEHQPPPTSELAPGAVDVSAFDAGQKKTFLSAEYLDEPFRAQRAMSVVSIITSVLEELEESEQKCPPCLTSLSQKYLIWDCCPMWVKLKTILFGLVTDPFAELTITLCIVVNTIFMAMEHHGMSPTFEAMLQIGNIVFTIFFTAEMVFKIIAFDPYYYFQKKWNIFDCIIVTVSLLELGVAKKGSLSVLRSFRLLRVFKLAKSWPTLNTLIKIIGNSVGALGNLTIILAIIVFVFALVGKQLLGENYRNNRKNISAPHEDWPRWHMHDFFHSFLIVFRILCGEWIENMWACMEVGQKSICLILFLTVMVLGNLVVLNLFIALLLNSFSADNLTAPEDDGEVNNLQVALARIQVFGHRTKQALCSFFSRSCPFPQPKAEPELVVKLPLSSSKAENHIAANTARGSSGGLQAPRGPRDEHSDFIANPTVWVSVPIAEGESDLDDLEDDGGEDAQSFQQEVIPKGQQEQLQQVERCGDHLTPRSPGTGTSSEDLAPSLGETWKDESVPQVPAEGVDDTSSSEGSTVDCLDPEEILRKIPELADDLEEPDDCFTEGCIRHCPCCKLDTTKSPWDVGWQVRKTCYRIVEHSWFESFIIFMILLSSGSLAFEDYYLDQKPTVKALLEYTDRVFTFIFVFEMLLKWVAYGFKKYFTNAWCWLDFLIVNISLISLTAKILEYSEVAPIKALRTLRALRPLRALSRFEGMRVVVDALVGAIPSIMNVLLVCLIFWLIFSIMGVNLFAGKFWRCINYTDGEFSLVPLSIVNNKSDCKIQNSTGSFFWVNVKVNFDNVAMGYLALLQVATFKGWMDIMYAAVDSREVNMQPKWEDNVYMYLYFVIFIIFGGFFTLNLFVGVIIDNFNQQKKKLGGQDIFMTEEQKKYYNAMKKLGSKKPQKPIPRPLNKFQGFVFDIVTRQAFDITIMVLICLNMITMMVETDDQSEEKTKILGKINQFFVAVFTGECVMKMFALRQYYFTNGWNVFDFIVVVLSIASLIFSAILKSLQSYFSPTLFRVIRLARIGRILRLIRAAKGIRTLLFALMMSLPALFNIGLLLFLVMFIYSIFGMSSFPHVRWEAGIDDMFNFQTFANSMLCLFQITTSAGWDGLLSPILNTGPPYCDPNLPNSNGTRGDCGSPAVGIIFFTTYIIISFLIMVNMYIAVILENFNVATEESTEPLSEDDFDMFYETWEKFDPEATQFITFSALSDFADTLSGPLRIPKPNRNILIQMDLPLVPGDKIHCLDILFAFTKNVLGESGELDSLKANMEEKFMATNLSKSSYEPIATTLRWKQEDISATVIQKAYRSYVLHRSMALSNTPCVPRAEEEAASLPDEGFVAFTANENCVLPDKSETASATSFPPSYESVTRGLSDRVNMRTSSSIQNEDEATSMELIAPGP

Row | SMILES | IC50 [nM]
1 | C[C@@H]1C(=O)NCCN1C(=O)NC(c1ccc(C(F)F)nc1)c1ccc(F)c(Cl)c1F (single isomer, unassigned) [Example 32B, (2R)-N-((s or R)-(3-chloro-2,4-difluoro-phenyl)(6-(difluoro-methyl)pyridin-3-yl)methyl)-2-methyl-3-oxopiperazine-1-carboxamide] | 13
2 | C[C@@H]1C(=O)NCCN1C(=O)NC(c1ccc(Cl)cc1)c1ccc(OCC(F)(F)F)nc1 (single isomer, unassigned) [Example 5A, (2R)-N-((R or S)-(4-chlorophenyl)(6-(2,2,2-trifluoro-ethoxy)pyridin-3-yl)methyl)-2-methyl-3-oxopiperazine-1-carboxamide] | 17.6
3 | C[C@@H]1C(=O)NCCN1C(=O)NC(c1cnc(OC(F)F)nc1)c1ccc(F)c(Cl)c1F (single isomer, unassigned) [Example 74B, (2R)-N-((S or R)-(3-chloro-2,4-difluorophenyl)(2-(difluoromethoxy)pyrimidin-5-yl)methyl)-2-methyl-3-oxopiperazine-1-carboxamide] | 1320
4 | C[C@@H]1C(=O)NCCN1C(=O)NC(c1ccc(F)c(Cl)c1)c1cccc(OC(F)F)n1 (single isomer, unassigned) [Example 72B] | 25.3
5 | C[C@@H]1C(=O)NCCN1C(=O)NC(c1cnc(C(F)(F)F)c(Cl)c1)c1ccc(F)c(C(F)(F)F)n1 (single isomer, unassigned) [Example 82A] | 17.4
6 | O=C1CN(C(=O)NC(c2ccc(F)c(Cl)c2)c2cccc(C(F)(F)F)n2)[C@H](CF)CN1 (single isomer, unassigned) [Example 47B, (2S)-N-((R or S)-(3-chloro-4-fluoro-phenyl)(6-(trifluoro-methyl)pyridin-2-yl)methyl)-2-(fluoromethyl)-5-oxopiperazine-1-carboxamide] | 3760
7 | C[C@H]1C(=O)NCCN1C(=O)NC(c1ccc(F)c(Cl)c1)c1cccc(C(F)(F)F)n1 (single isomer, unassigned) [Example 45, (2S)-N-((R or S)-(3-chloro-4-fluoro-phenyl)(6-(trifluoro-methyl)pyridin-2-yl)methyl)-2-methyl-3-oxopiperazine-1-carboxamide] | 1700
8 | C[C@@H]1C(=O)NCCN1C(=O)NC(c1ccc(F)c(Cl)c1)c1cnn(CC(F)(F)F)c1 (single isomer, unassigned) [Example 67A] | 890
9 | C[C@@H]1C(=O)NCCN1C(=O)NC(c1ccc(C(F)(F)F)nc1)c1ccc(F)c(Cl)c1F (single isomer, unassigned) [Example 15B] | 59.9
10 | O=C1CN(C(=O)NC(c2ccc(F)c(Cl)c2)c2cccc(C(F)(F)F)n2)CCN1 (single isomer, unassigned) [Example 42, N—((R or S)-(3-chloro-4-fluorophenyl)(6-(trifluoromethyl)pyridin-2-yl)methyl)-3-oxopiperazine-1-carboxamide] | 32.2
11 | C[C@@H]1C(=O)NCCN1C(=O)NC(c1ccc(F)c(Cl)c1)c1ccc2nc(C(F)(F)F)cn2c1 (single isomer, unassigned) [Example 11B] | 196
12 | C[C@@H]1C(=O)NCCN1C(=O)NC(c1ccc(OC2CC2)c(F)c1)c1ccc(F)c(C(F)(F)F)n1 (single isomer, unassigned) [Example 59B, (2R)-N-((S or R)-(4-cyclopropoxy-3-fluorophenyl)(5-fluoro-6-(trifluoromethyl)pyridin-2-yl)methyl)-2-methyl-3-oxopiperazine-1-carboxamide] | 31.8

The next compounds have a lower IC50 than those just listed; values first:

Row | IC50 [nM] | SMILES
13 | 11.7 | C[C@@H]1C(=O)NCCN1C(=O)NC(c1ccc(OC(F)(F)F)c(F)c1)c1ccc(F)c(C(F)(F)F)n1 (single isomer, unassigned) [Example 56A, (2R)-N-((R or S)-(3-fluoro-4-(trifluoro-methoxy)phenyl)(5-fluoro-6-(trifluoro-methyl)pyridin-2-yl)methyl)-2-methyl-3-oxopiperazine-1-carboxamide]
14 | 8.98 | O=C1CN(C(=O)NC(c2ccc(OCC(F)(F)F)nc2)c2ccc(F)c(Cl)c2)CCN1 (single isomer, unassigned) [Example 2A, N-((R or S)-(3-chloro-4-fluorophenyl)(6-(2,2,2-trifluoro-ethoxy)pyridin-3-yl)methyl)-3-oxopiperazine-1-carboxamide]
15 | 8.05 | C[C@@H]1C(=O)NCCN1C(=O)NC(c1cnn(-c2ccc(F)cc2)c1)c1ccc(F)c(Cl)c1F (single isomer, unassigned) [Example 65A, (2R)-N-((R or S)-(3-chloro-2,4-difluoro-phenyl)(1-(4-fluoro-phenyl)-1H-pyrazol-4-yl)methyl)-2-methyl-3-oxopiperazine-1-carboxamide]
16 | 7.01 | C[C@@H]1C(=O)NCCN1C(=O)NC(c1ccc(OC(F)F)nc1)c1ccc(F)c(Cl)c1 (single isomer, unassigned) [Example 73A, (2R)-N-((R or S)-(3-chloro-4-fluorophenyl)(6-(difluoromethoxy)pyridin-3-yl)methyl)-2-methyl-3-oxopiperazine-1-carboxamide]
17 | 6.79 | C[C@@H]1C(=O)NCCN1C(=O)NC(c1ccc(OCC(F)(F)F)cc1)c1ccc(F)c(C(F)(F)F)n1 (single isomer, unassigned) [Example 57A, (2R)-N-((R or S)-(5-fluoro-6-(trifluoro-methyl)pyridin-2-yl)(4-(2,2,2-trifluoro-ethoxy)phenyl)methyl)-2-methyl-3-oxopiperazine-1-carboxamide]
18 | 5.47 | C[C@@H]1C(=O)NCCN1C(=O)NC(c1ccc(F)c(Cl)c1)c1cc(C(F)(F)F)n[nH]1 (single isomer, unassigned) [Example 85B]
19 | 4.96 | C[C@@H]1C(=O)NCCN1C(=O)NC(c1ccc(OC(F)(F)F)c(Cl)c1)c1coc(C(F)(F)F)n1 (single isomer, unassigned) [Example 64A, (2R)-N-((R or S)-(3-chloro-4-(trifluoro-methoxy)phenyl)(2-(trifluoromethyl)oxazol-4-yl)methyl)-2-methyl-3-oxopiperazine-1-carboxamide]
20 | 4.94 | O=C1NCCN(C(=O)NC(c2cnc(C(F)(F)F)nc2)c2ccc(F)c(Cl)c2F)C1C1CC1 (single isomer, unassigned) [Example 41B, N-((R or S)-(3-chloro-2,4-difluorophenyl)(2-(trifluoromethyl)pyrimidin-5-yl)methyl)-(S or R)-2-cyclopropyl-3-oxopiperazine-1-carboxamide]
21 | 3.83 | C[C@@H]1C(=O)NCCN1C(=O)NC(c1ccc(OC(F)(F)F)c(F)c1)c1ccc(C#N)c(C(F)(F)F)n1 (single isomer, unassigned) [Example 61B]
22 | 3.42 | C[C@@H]1C(=O)NCCN1C(=O)NC(c1ccc(C(F)(F)F)nc1)c1ccc(Cl)c(Cl)c1F (single isomer, unassigned) [Example 29B]
23 | 3.33 | C[C@@H]1C(=O)NCCN1C(=O)NC(c1ccc(OC2CC2)c(F)c1)c1ccc(F)c(C(F)(F)F)n1 (single isomer, unassigned) [Example 59A, (2R)-N-((R or S)-(4-cyclopropoxy-3-fluorophenyl)(5-fluoro-6-(trifluoromethyl)pyridin-2-yl)methyl)-2-methyl-3-oxopiperazine-1-carboxamide]
24 | 2.88 | C[C@@H]1C(=O)NCCN1C(=O)NC(c1cnc(C2CC2)c(Cl)c1)c1ccc(F)c(Cl)c1F (single isomer, unassigned) [Example 27B, (2R)-N-((S or R)-(3-chloro-2,4-difluorophenyl)(5-chloro-6-cyclopropylpyridin-3-yl)methyl)-2-methyl-3-oxopiperazine-1-carboxamide]
25 | 2.84 | C[C@@H]1C(=O)NCCN1C(=O)NC(c1ccc(C#N)c(Cl)c1)c1cnc(C(F)(F)F)c(Cl)c1 (single isomer, unassigned) [Example 24B, (2R)-N-((S or R)-(3-chloro-4-cyano-phenyl)(5-chloro-6-(trifluoromethyl)pyridin-3-yl)methyl)-2-methyl-3-oxopiperazine-1-carboxamide]
26 | 2.68 | C[C@@H]1C(=O)NCCN1C(=O)NC(c1ccc(OC(F)(F)F)cc1)c1ccc(F)c(C(F)(F)F)n1 (single isomer, unassigned) [Example 55A, (2R)-N-((R or S)-(5-fluoro-6-(trifluoro-methyl)pyridin-2-yl)(4-(trifluoromethoxy)phenyl)methyl)-2-methyl-3-oxopiperazine-1-carboxamide]
27 | 2.13 | C[C@@H]1C(=O)NCCN1C(=O)NC(c1cnc(OCC(F)(F)F)s1)c1ccc(F)c(Cl)c1F (single isomer, unassigned) [Example 13A, (2R)-N-((R or S)-(3-chloro-2,4-difluoro-phenyl)(2-(2,2,2-tri-fluoroethoxy)thiazol-5-yl)methyl)-2-methyl-3-oxopiperazine-1-carboxamide]
